Results published in PMC11292009, “Mapping protein binding sites by photoreactive fragment pharmacophores” (Communications Chemistry, 2024).

Assays:
Assay type in all cases: binding
[1] = test system: carbonic anhydrase II (CA); test: Intact protein MS photoaffinity labeling screen, carbonic anhydrase; conditions: intact protein MS after 10 min irradiation
Summary of the method: (§1)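 Each fragment was placed in its own well and incubated with the protein for 15 min to allow non-covalent binding. Samples were then analysed directly from the plate by intact protein mass spectrometry, and labeling was scored as mass additions on the protein, reported as labeling %.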

[2] = test system: T1, BRD4-BD1; test: Intact MS photoaffinity labeling screen, BRD4-BD1 (302 nm, LCMS-TOF); conditions: for MS labeling percentage, BRD4: BRD4-BD1, 302 nm 10 min
T1 construct: screened the PhP library against the first bromodomain of BRD4 (BRD4-BD1); purchased GSK/GenScript
Summary of the method: (§2)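 Labeling detected as mass additions in deconvoluted intact-protein LCMS-TOF spectra. Protein at 1 μM in PBS was first mixed with one fragment per well on ice for 15 min, followed by 10 min UV exposure at 302 nm.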

[3] = test system: T2, KRas^G12D; test: Intact MS photoaffinity labeling screen, KRas G12D (302 nm, LCMS-TOF); conditions: for MS labeling percentage, KRas: KRas G12D, 302 nm 10 min
T2 construct: purchased GSK/GenScript
Summary of the method: as §2

[4] = test system: lysozyme (Lyo); test: Intact protein MS photoaffinity labeling screen, lysozyme; conditions: intact protein MS after 10 min irradiation
Summary of the method: as §1

[5] = test system: myoglobin (Myo); test: Intact protein MS photoaffinity labeling screen, myoglobin; conditions: intact protein MS after 10 min irradiation
Summary of the method: as §1

[6] = test system: T3, STAT5B-NTD; test: Intact MS photoaffinity labeling screen, STAT5B-NTD (365 nm, UHPLC-MS); conditions: for MS labeling percentage, STAT5B: STAT5B-NTD, 365 nm 10 min, no photocatalyst;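 on MS labeling percentage, STAT5B: 0.17 µL of 100 mM DMSO fragment stock added to the protein sample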
T3 construct: His-SUMO (N, cleaved yes); made in house; host or cells: E. coli BL21 RILP
Summary of the method: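 UV irradiation at 365 nm for 10 min at 4 °C. Labeling read by intact-protein UHPLC-MS, positive ion mode, m/z 100–2000.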

[7] = test system: T3, STAT5B-NTD; test: Intact MS labeling screen, STAT5B-NTD conjugated with photocatalyst Ir-G2-PEG3-COOH (450 nm); conditions: 450 nm 10 min;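 further: 0.14 µL of 100 mM DMSO fragment stock added to the conjugate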
Summary of the method: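 Ir-G2-PEG3-COOH photocatalyst (10 eq) activated 30 min with EDC/NHS/BOP, then conjugated to STAT5B-NTD (7 µM) overnight at RT or 1 h at 37 °C in dark. PhP added, 1 h dark, then 450 nm irradiation 10 min at 4 °C; labeling read by intact LC-MS, positive ion mode, m/z 100–2000.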

[8] = sheet PhP, experimental hit status flag given as 0 or 1
[9] = PhP library sheet "PhP", binary flag printed as 0 or 1, key not given

| MS labeling percentage, CA [1] | SMILES | MS labeling percentage, BRD4 [2] | BRD4-BD1 (experimental hit status) [2, 8] | MS labeling percentage, KRas [3] | KRAS-G12D (experimental hit status) [3, 8] | MS labeling percentage, Lyo [4] | MS labeling percentage, Myo [5] | MS labeling percentage, STAT5B [6] | STAT5B-NTD (experimental hit status) [6, 8] | MS labeling percentage, STAT5B+photocat [7] | BRD4-BD1 (experimental hit status) [2, 9] | KRAS-G12D (experimental hit status) [3, 9] | STAT5B-NTD (experimental hit status) [6, 9] |
| --- | --- | --- | --- | --- | --- | --- | --- | --- | --- | --- | --- | --- | --- |
| 0% | CC1(CCC(=O)N[C@@H](Cc2ccc(O)cc2)C(N)=O)N=N1 [PhP058, N1=NC1(C)CCC(=O)N[C@H](C(=O)N)Cc2ccc(O)cc2] | 0.4% | 0 | 0% | 0 | 1.2% | 0.1% | 1% | 0 | 0.5% | – | – | – |
| 2.3% | COc1ccc(OC)c(C(C)NC(=O)CCC2(C)N=N2)c1 (stereo not shown) [PhP062, COc1ccc(OC)c(c1)C(C)NC(=O)CCC2(C)N=N2] | 7.9% | 0 | 63.2% | 0 | 1% | 1.1% | 2% | 0 | 1.9% | – | – | – |
| 0.2% | CC1(CCC(=O)NCCCc2nc3ccccc3[nH]2)N=N1 [PhP069, N1=NC1(C)CCC(=O)NCCCc(n2)[nH]c(c23)cccc3] | 1.5% | 0 | 0.5% | 0 | 0% | 0.2% | 1% | 0 | 0.8% | – | – | – |
| 0% | C[C@@H](NC(=O)CCC1(C)N=N1)[C@@H](O)c1cccc(O)c1 [PhP070, Oc(c1)cccc1[C@H](O)[C@@H](C)NC(=O)CCC2(C)N=N2] | 0.3% | 0 | 0% | 0 | 1% | 0.1% | 1% | 0 | 4.2% | – | – | – |
| 0% | Cc1nc2ccccc2n1CCNC(=O)CCC1(C)N=N1 [PhP073, c1cccc(c12)n(c(n2)C)CCNC(=O)CCC3(C)N=N3] | 0.3% | 0 | 0.1% | 0 | 0% | 0.2% | 1% | 0 | 1.6% | – | – | – |
| 0.1% | CCc1cc(NC(=O)CCC2(C)N=N2)nc(C)n1 [PhP076, CCc1cc(nc(n1)C)NC(=O)CCC2(C)N=N2] | 0.9% | 0 | 0.2% | 0 | 0% | 0.2% | 2% | 0 | 3.2% | – | – | – |

The remaining lines, values behind:

| SMILES | MS labeling percentage, CA [1] | MS labeling percentage, BRD4 [2] | BRD4-BD1 (experimental hit status) [2, 8] | MS labeling percentage, KRas [3] | KRAS-G12D (experimental hit status) [3, 8] | MS labeling percentage, Lyo [4] | MS labeling percentage, Myo [5] | MS labeling percentage, STAT5B [6] | STAT5B-NTD (experimental hit status) [6, 8] | MS labeling percentage, STAT5B+photocat [7] | BRD4-BD1 (experimental hit status) [2, 9] | KRAS-G12D (experimental hit status) [3, 9] | STAT5B-NTD (experimental hit status) [6, 9] |
| --- | --- | --- | --- | --- | --- | --- | --- | --- | --- | --- | --- | --- | --- |
| CC1(CCC(=O)NCc2cccc(C(N)=O)c2)N=N1 [PhP059, N1=NC1(C)CCC(=O)NCc2cccc(c2)C(=O)N] | 0.6% | 0.7% | 0 | 0.8% | 0 | 0% | 0.7% | 1% | 0 | 0.3% | – | – | – |
| Cc1n[nH]c(C)c1CCNC(=O)CCC1(C)N=N1 [PhP061, Cc1n[nH]c(C)c1CCNC(=O)CCC2(C)N=N2] | 0.2% | 0.2% | 0 | 0.1% | 0 | 0% | 0.2% | 1% | 0 | 0% | – | – | – |
| Cn1cnnc1CCNC(=O)CCC1(C)N=N1 [PhP063, Cn1cnnc1CCNC(=O)CCC2(C)N=N2] | 0.3% | 49.7% | 0 | 0.8% | 0 | 0% | 0.3% | 0% | 0 | 0.4% | – | – | – |
| CC1(CCC(=O)NC(CO)Cc2c[nH]c3ccccc23)N=N1 (stereo not shown) [PhP064, N1=NC1(C)CCC(=O)NC(CO)Cc(c[nH]2)c(c23)cccc3] | 0.5% | 1.1% | 0 | 3.1% | 0 | 0.7% | 0.3% | 2.9% | 0 | 1.9% | – | – | – |
| CC1(CCC(=O)NCCCc2nc[nH]n2)N=N1 [PhP066, N1=NC1(C)CCC(=O)NCCCc2nc[nH]n2] | 0.3% | 0.3% | 0 | 0.2% | 0 | 0% | 0.3% | 0% | 0 | 0% | – | – | – |
| Cc1cc2ncn(CC(O)CNC(=O)CCC3(C)N=N3)c2cc1C (stereo not shown) [PhP067, Cc(c1)c(C)cc(c12)n(cn2)CC(O)CNC(=O)CCC3(C)N=N3] | 0.2% | 0.8% | 0 | 0.6% | 0 | 0% | 0.5% | 2% | 0 | 0.3% | – | – | – |
| COc1nc(C)cc(C)c1CNC(=O)CCC1(C)N=N1 [PhP068, COc1nc(C)cc(C)c1CNC(=O)CCC2(C)N=N2] | 0.3% | 1% | 0 | 0% | 0 | 0% | 0.4% | 1% | 0 | 4.4% | – | – | – |
| COc1cc(C)nc(NC(=O)CCC2(C)N=N2)n1 [PhP074, COc1cc(C)nc(n1)NC(=O)CCC2(C)N=N2] | 0.7% | 0.4% | 0 | 0.4% | 0 | 0% | 0.4% | 1% | 0 | 1.8% | – | – | – |
| CC1(CCC(=O)Nc2ccc3c(c2)NC(=O)CC3)N=N1 [PhP075, N1=NC1(C)CCC(=O)Nc(cc2)cc(c23)NC(=O)CC3] | 0.2% | 1.3% | 0 | 0.2% | 0 | 0% | 0.1% | 2% | 0 | 0.5% | – | – | – |
| CC1CN(Cc2ccccc2NC(=O)CCC2(C)N=N2)CC(C)O1 (stereo not shown) [PhP078, CC1CN(CC(O1)C)Cc2ccccc2NC(=O)CCC3(C)N=N3] | 0.4% | 0.4% | – | 0% | – | 0% | 0.2% | 0% | – | 0.7% | 0 | 0 | 0 |
| CC1(CCC(=O)N[C@@H](Cc2cccc(F)c2)CN2C(=O)c3ccccc3C2=O)N=N1 [PhP079, Fc(c1)cccc1C[C@H](NC(=O)CCC2(C)N=N2)CN(C3=O)C(=O)c(c34)cccc4] | 0.5% | – | – | 0.5% | – | 0.3% | 0.4% | 0% | – | 1.2% | 0 | 0 | 0 |
